{"source": "ChEMBL document CHEMBL1151628", "about": "“Antibacterial constituents of the diatom Navicula delognei” (1984)", "key": {"[1]": {"test_system": "Staphylococcus epidermidis", "assay": "Antimicrobial activity against Staphylococcus epidermidis ATCC 12228 at 0.5 mg/disk by disk diffusion assay", "type": "functional"}, "Proteus vulgaris [2]": {"test_system": "Proteus vulgaris", "assay": "Antimicrobial activity against Proteus vulgaris ATCC 13315 at 0.5 mg/disk by disk diffusion assay", "type": "functional"}, "Staphylococcus aureus [3]": {"test_system": "Staphylococcus aureus", "assay": "Antimicrobial activity against Staphylococcus aureus ATCC 25923 at 0.5 mg/disk by disk diffusion assay", "type": "functional"}, "Salmonella typhimurium [4]": {"test_system": "Salmonella typhimurium", "assay": "Antimicrobial activity against Salmonella Typhimurium ATCC 14028 at 0.5 mg/disk by disk diffusion assay", "type": "functional, Salmonella enterica subsp. enterica serovar Typhimurium"}, "Escherichia coli": {"test_system": "Escherichia coli", "assay": "Antimicrobial activity against Escherichia coli ATCC 25922 at 0.5 mg/disk by disk diffusion assay", "type": "functional, organism-based"}, "Serratia marcescens": {"test_system": "Serratia marcescens", "assay": "Antimicrobial activity against Serratia marcescens ATCC 8100 at 0.1 mg/disk by disk diffusion assay", "type": "functional"}, "Proteus vulgaris [5]": {"test_system": "Proteus vulgaris", "assay": "Antimicrobial activity against Proteus vulgaris ATCC 13315 at 0.1 mg/disk by disk diffusion assay", "type": "functional"}, "Klebsiella pneumoniae": {"test_system": "Klebsiella pneumoniae", "assay": "Antimicrobial activity against Klebsiella pneumoniae ATCC 13883 at 0.1 mg/disk by disk diffusion assay", "type": "functional"}, "Salmonella typhimurium [6]": {"test_system": "Salmonella typhimurium", "assay": "Antimicrobial activity against Salmonella Typhimurium ATCC 14028 at 0.1 mg/disk by disk diffusion assay", "type": "functional, Salmonella enterica subsp. enterica serovar Typhimurium"}, "[7]": {"test_system": "Staphylococcus epidermidis", "assay": "Antimicrobial activity against Staphylococcus epidermidis ATCC 12228 at 0.1 mg/disk by disk diffusion assay", "type": "functional"}, "Enterobacter cloacae": {"test_system": "Enterobacter cloacae", "assay": "Antimicrobial activity against Enterobacter cloacae ATCC 23355 at 0.1 mg/disk by disk diffusion assay", "type": "functional"}, "Staphylococcus aureus [8]": {"test_system": "Staphylococcus aureus", "assay": "Antimicrobial activity against Staphylococcus aureus ATCC 25923 at 0.1 mg/disk by disk diffusion assay", "type": "functional"}}, "note": "The source made the active and inactive calls. The rule behind the calls is not given here."}
{"compound": "CC/C=C\\C/C=C\\C/C=C\\C/C=C\\C/C=C\\CCCC(=O)OC/C=C(\\C)CCCC(C)CCCC(C)CCCC(C)C", "note": "(stereo unspecified)", "values": [{"measurement": "inhibition zone (IZ)", "setting": "[1]", "value": ">2", "unit": "mm"}, {"measurement": "Activity", "setting": "Proteus vulgaris [2]", "value": "Active"}, {"measurement": "inhibition zone (IZ)", "setting": "Staphylococcus aureus [3]", "value": ">4", "unit": "mm"}, {"measurement": "inhibition zone (IZ)", "setting": "Salmonella typhimurium [4]", "value": ">2", "unit": "mm"}]}
{"compound": "C=CC/C=C\\C/C=C\\C/C=C\\CCCCC(=O)O", "values": [{"measurement": "inhibition zone (IZ)", "setting": "[1]", "value": ">2", "unit": "mm"}, {"measurement": "Activity", "setting": "Proteus vulgaris [2]", "value": "Active"}, {"measurement": "inhibition zone (IZ)", "setting": "Staphylococcus aureus [3]", "value": ">2", "unit": "mm"}, {"measurement": "inhibition zone (IZ)", "setting": "Salmonella typhimurium [4]", "value": ">4", "unit": "mm"}, {"measurement": "Activity", "setting": "Escherichia coli", "value": "Active"}]}
{"compound": "O=C(N[C@H](CO)[C@H](O)c1ccc([N+](=O)[O-])cc1)C(Cl)Cl", "note": "[CHLORAMPHENICOL]", "values": [{"measurement": "inhibition zone (IZ)", "setting": "Serratia marcescens", "value": ">4", "unit": "mm"}]}
{"compound": "CC/C=C\\C/C=C\\C/C=C\\C/C=C\\CCCCC(=O)O", "values": [{"measurement": "inhibition zone (IZ)", "setting": "[1]", "value": ">2", "unit": "mm"}, {"measurement": "inhibition zone (IZ)", "setting": "Proteus vulgaris [2]", "value": ">2", "unit": "mm"}, {"measurement": "inhibition zone (IZ)", "setting": "Staphylococcus aureus [3]", "value": ">2", "unit": "mm"}, {"measurement": "inhibition zone (IZ)", "setting": "Salmonella typhimurium [4]", "value": ">2", "unit": "mm"}, {"measurement": "Activity", "setting": "Escherichia coli", "value": "Active"}]}
{"compound": "CN(C)[C@@H]1C(O)=C(C(N)=O)C(=O)[C@@]2(O)C(O)=C3C(=O)c4c(O)cccc4[C@@](C)(O)[C@H]3C[C@@H]12", "note": "[TETRACYCLINE]", "values": [{"measurement": "inhibition zone (IZ)", "setting": "Proteus vulgaris [5]", "value": ">4", "unit": "mm"}, {"measurement": "inhibition zone (IZ)", "setting": "Klebsiella pneumoniae", "value": ">4", "unit": "mm"}]}
{"compound": "CC1(C)S[C@@H]2[C@H](NC(=O)[C@H](N)c3ccccc3)C(=O)N2[C@H]1C(=O)O", "note": "[AMPICILLIN]", "values": [{"measurement": "inhibition zone (IZ)", "setting": "Salmonella typhimurium [6]", "value": ">4", "unit": "mm"}, {"measurement": "inhibition zone (IZ)", "setting": "[7]", "value": ">4", "unit": "mm"}, {"measurement": "inhibition zone (IZ)", "setting": "Enterobacter cloacae", "value": ">4", "unit": "mm"}, {"measurement": "inhibition zone (IZ)", "setting": "Staphylococcus aureus [8]", "value": ">4", "unit": "mm"}]}
